Reference: patent US9695155B2, “Herbicidal substituted pyrimidinyloxy benzene compounds” (E. I. DU PONT DE NEMOURS AND COMPANY, priority 2013, dated 2017)

Columns and labels:
large (Lg) crabgrass = experiment: Test C postemergence; format: in vivo, Digitaria sanguinalis; conditions: Digitaria sanguinalis, post-emergence
Outline: (§1)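 Visual injury score versus untreated controls, 0 = no effect, 100 = complete control, taken 13 to 15 days after treatment in the greenhouse. Pre-emergence pots held loam/sand; post-emergence plants grew in sphagnum peat/vermiculite mix and were sprayed at the 1- to 4-leaf stage.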

velvetleaf [1] = experiment: Test C postemergence; format: in vivo, Abutilon theophrasti
Outline: as §1

barnyardgrass [2] = experiment: Test C preemergence; format: in vivo, Echinochloa crus-galli; conditions: Echinochloa crus-galli, pre-emergence
Outline: as §1

soybean = experiment: Test C postemergence; format: in vivo, Glycine max
Outline: as §1

corn = experiment: Test C preemergence; format: in vivo, Zea mays; conditions: Zea mays, pre-emergence
Outline: as §1

barnyardgrass [3] = experiment: Test B flooded paddy test; format: in vivo, Echinochloa crus-galli; conditions: Echinochloa crus-galli; Flood, 250 g ai/ha; 0 to 100 scale where 0 is no effect and 100 is complete control; read-out: Plant response rating, Barnyardgrass
Outline: (§2)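 2-leaf stage plants; pots flooded to 3 cm, compound added to paddy water, depth maintained. Greenhouse 13–15 d. Visual rating vs untreated controls, 0 (no effect) to 100 (complete control); dash = no result.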

giant foxtail = experiment: Test C preemergence; format: in vivo, Setaria faberii; conditions: Setaria faberi, pre-emergence
Outline: as §1

sedge, umbrella = experiment: Test B flooded paddy test; format: in vivo, Cyperus difformis; conditions: Cyperus difformis, Flood, 250 g ai/ha; 0 to 100 scale where 0 is no effect and 100 is complete control; read-out: Plant response rating, Sedge, Umbrella
Outline: as §2

morningglory = experiment: Test A preemergence; format: in vivo, Ipomoea spp.
Outline: (§3)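 Visual 0–100 rating (100 = complete control) taken about 10 d post-treatment relative to untreated checks. Preemergence: directed soil spray on sown loam/sand pots. Postemergence: seedlings 2–10 cm, 1–2 leaf. Non-phytotoxic solvent formulation with surfactant.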

wheat = experiment: Test A preemergence; format: in vivo, Triticum aestivum
Outline: as §3

barnyardgrass [4] = experiment: Test C postemergence; format: in vivo, Echinochloa crus-galli; conditions: Echinochloa crus-galli, post-emergence
Outline: as §1

velvetleaf [5] = experiment: Test A postemergence; format: in vivo, Abutilon theophrasti; conditions: 0 to 100 scale where 0 is no effect and 100 is complete control
Outline: as §3

oilseed rape [6] = experiment: Test C postemergence; format: in vivo, Brassica napus
Outline: as §1

waterhemp = experiment: Test C postemergence; format: in vivo, Amaranthus rudis
Outline: as §1

oilseed rape [7] = experiment: Test C preemergence; format: in vivo, Brassica napus; conditions: Brassica napus, pre-emergence, preemergence, read-out: Oilseed Rape plant response rating
Outline: as §1

[8] = 31 g ai/ha, postemergence, visual rating, scale 0 to 100 (0 no effect, 100 complete control), 13 to 15 days

SMILES: FC(F)(F)c1cn(-c2ccccc2Oc2ncc(Cl)cn2)nn1 [Compound 166, 5-chloro-2-[2-[4-(trifluoromethyl)-1H-1,2,3-triazol-1-yl]phenoxy]pyrimidine]
- pest or weed control at 16 g/ha (large (Lg) crabgrass; 16 g ai/ha, postemergence, 0 is no effect, 100 is complete control, read-out: Plant response rating (0 to 100), Crabgrass, Large): 5%
- pest or weed control at 31 g/ha (large (Lg) crabgrass; 31 g ai/ha, postemergence, visual rating, scale 0 to 100 (0 no effect, 100 complete control), 13 to 15 days, read-out: Crabgrass, Large plant response rating): 5%
- pest or weed control at 125 g/ha (large (Lg) crabgrass; 125 g ai/ha, postemergence, visual rating, scale 0 to 100 (0 no effect, 100 complete control), read-out: Plant response rating, Crabgrass, Large): 15%
- pest or weed control at 62 g/ha (large (Lg) crabgrass; Postemergence, 62 g ai/ha, scale 0 to 100 (0 no effect, 100 complete control), read-out: Plant response rating, Crabgrass, Large): 10%
- Velvetleaf plant response rating (velvetleaf [1]; [8]): 55
- pest or weed control at 16 g/ha (velvetleaf [1]; Abutilon theophrasti, post-emergence, 16 g ai/ha, postemergence, 0 is no effect, 100 is complete control, read-out: Plant response rating (0 to 100), Velvetleaf): 45%
- pest or weed control at 125 g/ha (velvetleaf [1]; Abutilon theophrasti, post-emergence, 125 g ai/ha, postemergence, visual rating, scale 0 to 100 (0 no effect, 100 complete control), read-out: Plant response rating, Velvetleaf): 85%
- pest or weed control at 62 g/ha (velvetleaf [1]; Abutilon theophrasti, post-emergence, Postemergence, 62 g ai/ha, scale 0 to 100 (0 no effect, 100 complete control), read-out: Plant response rating, Velvetleaf): 80%
- pest or weed control at 16 g/ha (barnyardgrass [2]; 16 g ai/ha, preemergence, scale 0 to 100 (0 no effect, 100 complete control), read-out: Barnyardgrass plant response rating): 85%
- pest or weed control at 62 g/ha (barnyardgrass [2]; 62 g ai/ha, preemergence, scale 0 (no effect) to 100 (complete control), read-out: Barnyardgrass plant response rating): 100%
- pest or weed control at 125 g/ha (barnyardgrass [2]; 125 g ai/ha, preemergence, scale 0 (no effect) to 100 (complete control), read-out: Barnyardgrass plant response rating): 100%
- pest or weed control at 31 g/ha (barnyardgrass [2]; Preemergence, 31 g ai/ha, scale 0 to 100, 0 no effect, 100 complete control, read-out: Plant response rating, Barnyardgrass): 100%
- Soybean plant response rating (soybean; [8]): 95
- Soybean plant response rating (crop injury, 0-100 scale) at 16 g/ha (soybean; Glycine max, post-emergence, 16 g ai/ha, postemergence, 0 is no effect, 100 is complete control): 40%
- Soybean plant response rating (crop injury, 0-100 scale) at 125 g/ha (soybean; Glycine max, post-emergence, 125 g ai/ha, postemergence, visual rating, scale 0 to 100 (0 no effect, 100 complete control), read-out: Plant response rating, Soybean): 95%
- Soybean plant response rating (crop injury, 0-100 scale) at 62 g/ha (soybean; Glycine max, post-emergence, Postemergence, 62 g ai/ha, scale 0 to 100 (0 no effect, 100 complete control)): 90%
- plant injury at 16 g/ha (corn; 16 g ai/ha, preemergence, scale 0 to 100 (0 no effect, 100 complete control), read-out: Corn plant response rating): 0%
- plant injury at 62 g/ha (corn; 62 g ai/ha, preemergence, scale 0 (no effect) to 100 (complete control), read-out: Corn plant response rating): 40%
- plant injury at 125 g/ha (corn; 125 g ai/ha, preemergence, scale 0 (no effect) to 100 (complete control), read-out: Corn plant response rating): 80%
- Corn plant response rating (crop injury, 0 = no effect, 100 = complete kill) at 31 g/ha (corn; Preemergence, 31 g ai/ha, scale 0 to 100, 0 no effect, 100 complete control): 25%
- pest or weed control at 250 g/ha (barnyardgrass [3]): 60%
- pest or weed control at 16 g/ha (giant foxtail; 16 g ai/ha, preemergence, scale 0 to 100 (0 no effect, 100 complete control), read-out: Foxtail, Giant plant response rating): 100%
- pest or weed control at 62 g/ha (giant foxtail; 62 g ai/ha, preemergence, scale 0 (no effect) to 100 (complete control), read-out: Foxtail, Giant plant response rating): 100%
- pest or weed control at 125 g/ha (giant foxtail; 125 g ai/ha, preemergence, scale 0 (no effect) to 100 (complete control), read-out: Foxtail, Giant plant response rating): 100%
- pest or weed control at 31 g/ha (giant foxtail; Preemergence, 31 g ai/ha, scale 0 to 100, 0 no effect, 100 complete control, read-out: Plant response rating, Foxtail, Giant): 100%
- pest or weed control at 250 g/ha (sedge, umbrella): 95%
- Morningglory plant response rating (0 to 100 scale) (morningglory; 125 g ai/ha): 100
- pest or weed control at 500 g/ha (morningglory; Ipomoea, pre-emergence, 240 h, 500 g ai/ha, 0 to 100 scale where 0 is no effect and 100 is complete control, read-out: Morningglory plant response rating): 100%
- Wheat plant response rating (0 to 100 scale) (wheat; 125 g ai/ha): 50
- plant injury at 500 g/ha (wheat; Triticum aestivum, pre-emergence, 240 h, 500 g ai/ha, 0 to 100 scale where 0 is no effect and 100 is complete control, read-out: Wheat plant response rating): 80%
- pest or weed control at 16 g/ha (barnyardgrass [4]; 16 g ai/ha, postemergence, 0 is no effect, 100 is complete control, read-out: Plant response rating (0 to 100), Barnyardgrass): 5%
- pest or weed control at 31 g/ha (barnyardgrass [4]; 31 g ai/ha, postemergence, visual rating, scale 0 to 100 (0 no effect, 100 complete control), 13 to 15 days, read-out: Barnyardgrass plant response rating): 10%
- pest or weed control at 125 g/ha (barnyardgrass [4]; 125 g ai/ha, postemergence, visual rating, scale 0 to 100 (0 no effect, 100 complete control), read-out: Plant response rating, Barnyardgrass): 15%
- pest or weed control at 62 g/ha (barnyardgrass [4]; Postemergence, 62 g ai/ha, scale 0 to 100 (0 no effect, 100 complete control), read-out: Plant response rating, Barnyardgrass): 10%
- Velvetleaf plant response rating (velvetleaf [5]; 125 g ai/ha): 100
- pest or weed control at 500 g/ha (velvetleaf [5]; Abutilon theophrasti, post-emergence, 240 h, 500 g ai/ha, read-out: Plant response rating, Velvetleaf): 100%
- Oilseed Rape plant response rating (oilseed rape [6]; [8]): 90
- plant injury at 16 g/ha (oilseed rape [6]; Brassica napus, post-emergence, 16 g ai/ha, postemergence, 0 is no effect, 100 is complete control, read-out: Plant response rating (0 to 100), Oilseed Rape): 60%
- plant injury at 125 g/ha (oilseed rape [6]; Brassica napus, post-emergence, 125 g ai/ha, postemergence, visual rating, scale 0 to 100 (0 no effect, 100 complete control), read-out: Plant response rating, Oilseed Rape): 98%
- plant injury at 62 g/ha (oilseed rape [6]; Brassica napus, post-emergence, Postemergence, 62 g ai/ha, scale 0 to 100 (0 no effect, 100 complete control), read-out: Plant response rating, Oilseed Rape): 95%
- Waterhemp plant response rating (waterhemp; [8]): 85
- pest or weed control at 16 g/ha (waterhemp; Amaranthus tuberculatus, post-emergence, 16 g ai/ha, postemergence, 0 is no effect, 100 is complete control, read-out: Plant response rating (0 to 100), Waterhemp): 75%
- pest or weed control at 125 g/ha (waterhemp; Amaranthus tuberculatus, post-emergence, 125 g ai/ha, postemergence, visual rating, scale 0 to 100 (0 no effect, 100 complete control), read-out: Plant response rating, Waterhemp): 90%
- pest or weed control at 62 g/ha (waterhemp; Amaranthus tuberculatus, post-emergence, Postemergence, 62 g ai/ha, scale 0 to 100 (0 no effect, 100 complete control), read-out: Plant response rating, Waterhemp): 90%
- plant injury at 16 g/ha (oilseed rape [7]; 16 g ai/ha, scale 0 to 100 (0 no effect, 100 complete control)): 90%
- plant injury at 62 g/ha (oilseed rape [7]; 62 g ai/ha, scale 0 (no effect) to 100 (complete control)): 100%
- plant injury at 125 g/ha (oilseed rape [7]; 125 g ai/ha, scale 0 (no effect) to 100 (complete control)): 100%
